Values after ≈ are worked out from the molar mass of the structure shown.
Tests used:
Assay type in all cases: cell-based
P. aeruginosa PAO1 = test: Half maximal inhibitory concentration (IC50), planktonic growth (CFU/mL); conditions: M63 media, 18 h
Description: Measurement of Half Maximal Inhibitory Concentration (IC50). IC50 values were determined as reported earlier13 with some modifications. Compound stock solutions in DMSO (100 mM and 10 mM) were prepared from powd er. To prep are the cell susp ensions utilized in the measu rements, starter cultures o f P. aeru ginosa wer e diluted to an optical density at 600 nm (OD600) = 0.005 in fresh LB media (5 mL) and then cultured at 37°C and 220 rpm for 4 h prior to diluting to an OD600 = 0.0001 in M63. A small volume of compound stock solution w as further diluted in DMSO to 30 µL and then diluted in M63 cell suspension to a final volume of 2.0 mL. The resultant solution was placed in a well of a 96-well plate and then serially 2-fold diluted in M63 cell suspension to produce 6 distinct com pound concent rations, each with 1.5% DMSO. Th e plate was co ver ed and incubated for 18 h at 35 °C in a Synergy H1 plate reader (Biotek). The resultant cell cultures were serially diluted in PBS and then plated on PI Agar plates (PIA; BD biosciences) for counting viable cells (CFU/mL). The % growth was calculated from the ratio CFU/mL(t reat ed )/CFU/mL(untreated control). To calculate the IC50 values, the % growth was plotted as a function of compound concentration expressed as log[compound] ( µM), and fitted to equation S1 describing the sigmoid- shaped response pattern, 14 where b is the slope factor, max is the upper asymptote (plateau), and min is the lower asymptote. IC 50 values are the average and standard deviation from three independent experiments , each conducted with thr ee techni cal replicates.

[1] = system: P. aeruginosa PAO1 biofilm; test: Pellicle biofilm assay, % survival of biofilm cells; conditions: for % Survival Biofilm, P. aeruginosa PAO1: 24 h; for biofilm cell death: 27 h old pellicle biofilms treated 24 h
Description: We studied the susceptibility of mature biofilms to treatment with analogues of 4-aminoisoindoline-1,3-dione using biofilms cultured at the […] interface (pellicles) using methodology reported previously. To determine the susceptibility of pellicle biofilms to inhibitors of the Pa Bfr–Bfd complex, we cultured 27 h old biofilms in PI media supplemented with 20 μM Fe, as presented in Experimental Methods. The mature biofilms were transferred onto glass coverslips by touching the pellicle with the surface of the coverslips. The coverslip-adhered biofilms were then exposed to treatment solution consisting of AB media supplemented with 20 μM Fe, 1.5% DMSO, 0.025% HPMC, and 4-aminoisoindoline-1,3-dione derivative or commercial antibiotic for 24 h. The biofilms were then harvested and washed, and the cells were dispersed into sterile PBS by vortexing in the presence of zirconia beads prior to plating and enumerating viable cells (CFU/mL) to calculate % cell survival.
Biofilm Assays. Pellicle biofilms formed by EYF P-expressing P. aeruginosa PAO1 wer e carried ou t as repo rted previously,13 with some modifications. Starter cultures were diluted to OD600 = 0.001 in 4 mL PI media supplement ed with 20 µM Fe , trans ferred to petri dishes (35 x 10 mm) and incubated statically for 27 h at 30 °C.
The pellicles were transferred onto circular microscope glass coverslips (12 mm diameter) by gently allowing the surface of a coverslip to contact the pellicle. Th e biofilm- attached coverslip was washed (3 x) by floating it on top of PBS with the biofilm exposed to the liquid and then placed on top of 1.5 mL AB challenge media in a well of a 12-well microplate, with the biofilm exposed to the media at 30 °C for 24 h. AB challenge media is AB minimal media supplemented with 1.5% DMSO, 0.025% HPMC, 20 μ M Fe, and 4-aminoisoindoline-1,3- dione […]
The 4-aminoisoindoline-1,3- dione derivative solutions were prep ared from powder as 10 mM st ock solutions in DMSO and then diluted in AB challenge media to the appropriate concentrations. Following the 24 h challenge, planktonic and loosely attached cells were washed 3 times by floating the coverslip-attached biofilms with the biofilm facing down into a petri d ish (60 x 15 mm) containing 15 mL PBS, and incubating for 5 min. The biofilm was removed from the coversli p and the cells releas ed f rom the extra cel lular matrix by placing th e cov erslip-attach ed biofi lm in a 50 mL conical tub e containing a 2-mL sup ension of zirconia beads (0.1 mm diam eter, BiosSpec Produ cts), 10 mL PBS, 1 mM MgSO4, 20 µg/mL alginate lyase and 40 µg/mL DNAse. The mixture was incubated for three min at room temperature, and then vigorously vortexed for four min. Following sedimentation of the zirconia beads, a 100 μ L aliquot was utilized for serial dilution in PBS and plating on PIA plates for viable cell enumeration (CFU/mL). […]

A. baumannii 5075 = test: MIC, broth microdilution in M63 media
Description: (§1) Measurement of Minimum Inhibitory Concentrations (MIC). The MIC of compounds and select ed antibiotics against three strains of A. baumannii (5075, ATCC 17988, and ATCC 19606) were determined via the broth microdilution method according to Clinical and Laboratory Standard Instit ute (CLSI) guidelines,15 but culturing […]
(§2) To establish a 2-fold dilution series of compound, 985 μ L of diluted cells was mixed with 15 μ L of compound […]
(§3) dissolved in DMSO, such that the resultant solution had the highest concentration of compound or antibiotic tested and 1.5% DMSO. To carry out the serial dilution from the highest compound concentration, a 150 μ L solution of higher concentration compound or antibiotic was mixed with 150 μ L of cell suspension containing 1.5% DMSO in the wells of a 96 well plate.
(§4) Th e 96 well plate was in cubated for 20 hat 35 °C with continuous orbital shaking (205 cpm) in an Epoch2 microplate reader (BioTek), monitoring the growth by […]
(§5) following the OD600. […]
(§6) FFFFFF = MMMMMMAA iiii ccllccbbiiiicccciilliiMMMMMMAA+ MMMMMMBB iiii ccllccbbiiiicccciilliiMMMMMMBB S2 Time Kill Assays. Time-kill assays were performed with A. baumannii 507 5 by the broth macro- dilution method in M63- medium containing 1.5% DMSO. An overnight culture was diluted to approximately 5 x10^5 CFU/mL in fresh M63 media. The test solutions were prepared by adding compound (KM-5- 35, or KM-5- 25) dissolved in DMSO to 5 mL of diluted cell suspension to yield a solution of the desired compound concentration and 1.5% DMSO, or by the addition of antibiotic dissolved in water and a small volume of DMSO to produce the desired

A. baumannii ATCC 17978 = test: MIC, broth microdilution in M63 media
Description: as §1, §2, §3, §4, §5, §6

A. baumannii ATCC 19606 = test: MIC, broth microdilution in M63 media
Description: as §1, §2, §3, §4, §5, §6

[2] = Pseudomonas aeruginosa, PAO1, planktonic cells
[3] = biofilm challenged with 50 µM compound
[4] = Acinetobacter baumannii, 5075, 20 h
[5] = Acinetobacter baumannii, ATCC17978, 20 h
[6] = Acinetobacter baumannii, ATCC19606, 20 h
[7] = biofilm challenged with 30 µM compound
[8] = biofilm challenged with 20 µM compound

SMILES | IC50 (P. aeruginosa PAO1; [2]) [µM] | % Survival Biofilm, P. aeruginosa PAO1 [1, 3] [%] | MIC (A. baumannii 5075; [4]) [µM] | MIC (A. baumannii ATCC 17978; [5]) [µM] | MIC (A. baumannii ATCC 19606; [6]) [µM] | IC50 (P. aeruginosa PAO1; planktonic cells) [µM] | MIC (A. baumannii 5075; 20 h) [µM] | MIC (A. baumannii ATCC 17978; 20 h) [µM] | MIC (A. baumannii ATCC 19606; 20 h) [µM] | IC50, P. aeruginosa PAO1 (P. aeruginosa PAO1; planktonic cells) | % Survival Biofilm, P. aeruginosa PAO1 [1, 7] [%] | biofilm cell death [1] | % Survival Biofilm, P. aeruginosa PAO1 [1, 8] | % Survival Biofilm, P. aeruginosa PAO1 ([1]; biofilm challenged with 40 µM compound) [%]
O=C1NC(=O)c2c(NCc3ccccc3O)cccc21 [Analog 11, 4-((2-Hydroxybenzyl)amino)isoindoline-1,3-dione] | 178 ± 14 | 87 ± 6 | 80 (≈ 21.5 µg/mL) | 120 (≈ 32.2 µg/mL) | 80 (≈ 21.5 µg/mL) | – | – | – | – | – | – | – | – | –
O=C1NC(=O)c2c(NCc3ccc(Br)cc3O)cccc21 [EB-5-61] | – | 8 ± 2 | – | – | – | 24 ± 2 | 50 (≈ 17.4 µg/mL) | 50 (≈ 17.4 µg/mL) | 50 (≈ 17.4 µg/mL) | – | – | – | – | –
Cc1ccc(CNc2cccc3c2C(=O)NC3=O)c(O)c1 [EB-5-69] | – | 64 ± 1 | – | – | – | – | 80 (≈ 22.6 µg/mL) | 80 (≈ 22.6 µg/mL) | 80 (≈ 22.6 µg/mL) | Not active | – | – | – | –
Cc1cccc(CNc2cccc3c2C(=O)NC3=O)c1O [EB-5-70] | – | 105 ± 2 | – | – | – | – | 100 (≈ 28.2 µg/mL) | 100 (≈ 28.2 µg/mL) | 100 (≈ 28.2 µg/mL) | Not active | – | – | – | –
O=C1NC(=O)c2c(NCc3c(O)cccc3F)cccc21 [EB-5-71] | – | 52 ± 10 | – | – | – | 80 ± 10 | 75 (≈ 21.5 µg/mL) | 75 (≈ 21.5 µg/mL) | 75 (≈ 21.5 µg/mL) | – | – | – | – | –
O=C1NC(=O)c2c(NCc3c(O)cccc3Br)cccc21 [EB-5-72] | – | 45 ± 0.4 | – | – | – | 32 ± 5 | > 60 | > 60 | > 60 | – | – | – | – | –
O=C1NC(=O)c2c(NCc3cccc(Br)c3O)cccc21 [EB-5-73] | – | – | – | – | – | – | > 40 | 40 (≈ 13.9 µg/mL) | > 40 | Not active | 78 ± 14 | – | – | –
O=C1NC(=O)c2c(NCc3cccc(F)c3O)cccc21 [EB-5-80] | – | 106 ± 23 | – | – | – | – | > 100 | > 100 | > 100 | Not active | – | – | – | –
O=C1NC(=O)c2c(NCc3cc(F)ccc3O)cccc21 [JAG-5-7] | 83 ± 19 | 85 ± 16 | 60 (≈ 17.2 µg/mL) | 60 (≈ 17.2 µg/mL) | 60 (≈ 17.2 µg/mL) | – | – | – | – | – | – | – | – | –
O=C1NC(=O)c2c(NCc3cc(Cl)ccc3O)cccc21 [KM-5-25, 4-((5-Chloro-2-hydroxybenzyl)amino)isoindoline-1,3-dione] | – | 17 ± 6 | – | – | – | 31 ± 7 | 40 (≈ 12.1 µg/mL) | 40 (≈ 12.1 µg/mL) | 30 (≈ 9.08 µg/mL) | – | – | concentration-dependent biofilm cell death | – | –
O=C1NC(=O)c2c(NCc3c(O)cccc3Cl)cccc21 [KM-5-29] | – | 50 ± 7 | – | – | – | 36 ± 5 | > 60 | > 60 | > 60 | – | – | – | – | –
O=C1NC(=O)c2c(NCc3cccc(Cl)c3O)cccc21 [KM-5-30] | – | 72 ± 11 | – | – | – | 57 ± 2 | > 80 | > 80 | > 80 | – | – | – | – | –
O=C1NC(=O)c2c(NCc3cc(Br)ccc3O)cccc21 [KM-5-35, 4-((5-Bromo-2-hydroxybenzyl)amino)isoindoline-1,3-dione] | – | 10 ± 4 | – | – | – | 27 ± 3 | 40 (≈ 13.9 µg/mL) | 30 (≈ 10.4 µg/mL) | 30 (≈ 10.4 µg/mL) | – | – | concentration-dependent biofilm cell death | – | –
O=C1NC(=O)c2c(NCc3cc(Cl)ccc3O)ccc(Br)c21 [SB-16-51] | – | – | – | – | – | 18 ± 3 | 10 (≈ 3.82 µg/mL) | 15 (≈ 5.72 µg/mL) | 15 (≈ 5.72 µg/mL) | – | – | – | 53 ± 9% | –
CC(C)(C)c1ccc(O)c(CNc2cccc3c2C(=O)NC3=O)c1 [SB-16-53] | 12 ± 6 | – | 30 (≈ 9.73 µg/mL) | 30 (≈ 9.73 µg/mL) | 30 (≈ 9.73 µg/mL) | – | – | – | – | – | 48 ± 10 | – | – | –
O=C1NC(=O)c2c(NCc3cc(F)ccc3O)ccc(Br)c21 [SB-16-67] | – | – | – | – | – | > 40 | 40 (≈ 14.6 µg/mL) | 20 (≈ 7.3 µg/mL) | 30 (≈ 11 µg/mL) | – | – | – | – | –
Cc1cc(Br)cc(CNc2cccc3c2C(=O)NC3=O)c1O [SB-16-106] | – | – | – | – | – | 14 ± 4 | 20 (≈ 7.22 µg/mL) | 15 (≈ 5.42 µg/mL) | 30 (≈ 10.8 µg/mL) | – | 42 ± 9 | – | – | –
O=C1NC(=O)c2c(NCc3cc(Br)c(F)cc3O)cccc21 [SB-16-112] | – | – | – | – | – | 14 ± 3 | 20 (≈ 7.3 µg/mL) | 20 (≈ 7.3 µg/mL) | 20 (≈ 7.3 µg/mL) | – | 15 ± 0.7 | – | – | –
O=C1NC(=O)c2c(NCc3cc(Br)cc(F)c3O)cccc21 [SB-16-118] | – | – | – | – | – | 25 ± 8 | 20 (≈ 7.3 µg/mL) | 30 (≈ 11 µg/mL) | 30 (≈ 11 µg/mL) | – | – | – | – | 13 ± 2
O=C1NC(=O)c2c(NCc3cc(Br)ccc3O)ccc(Cl)c21 [SB-16-124] | – | – | – | – | – | 17 ± 2 | 20 (≈ 7.63 µg/mL) | 20 (≈ 7.63 µg/mL) | 20 (≈ 7.63 µg/mL) | – | – | – | Not active | –
O=C1NC(=O)c2c(NCc3cc(Br)cc(O)c3O)cccc21 [SB-16-136] | – | 63 ± 2 | – | – | – | 20 ± 5 | 40 (≈ 14.5 µg/mL) | 30 (≈ 10.9 µg/mL) | 30 (≈ 10.9 µg/mL) | – | – | – | – | –
O=C1NC(=O)c2c(NCc3cc(Br)c(O)cc3O)cccc21 [SB-16-137] | – | 78 ± 21 | – | – | – | 37 ± 4 | > 80 | > 80 | > 80 | – | – | – | – | –

Source: paper PMC12261321, “Inhibitors of the Bacterioferritin Ferredoxin Complex Dysregulate Iron Homeostasis and Kill and Biofilm-Embedded Cells” (ACS Infectious Diseases, 2025)
